In PubChem BioAssay (NCI) one finds TGI and GI50 data, which are given here for 11 compounds.

What all share (test): DTP human tumour cell line panel, 48 h
Assay [1] has as its system SNB-19 CNS.
The test system of assay [2] is LOX IMVI melanoma.
Assay [3] has as its system SNB-75 CNS.
The subject of assay [4] is SN12C renal.
The test system of assay [5] is UACC-62 melanoma.
The subject of assay [6] is COLO 205 colon.
For assay [7], the system named is SK-MEL-5 melanoma.
In assay [8] the test system is HCT-15 colon.
For assay [9], the system named is ACHN renal.
Assay [10] concerns PC-3 prostate.

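In this assay, cells in 96-well plates receive the compound at five concentrations for 48 hours. Endpoints are linearly interpolated between the surrounding concentrations. The concentration for 50% growth inhibition is given as GI50. TGI: concentration producing complete growth inhibition.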

The TGI is the concentration giving total growth inhibition. A low value points to greater sensitivity of the cells. Regarding `NC(=O)NN=C(CS)CS`, the TGI in assay [1] is 52.3 µM; in assay [2], 40.3 µM; in [3], over 75.3 µM; in assay [4] it was 55 µM; in assay [5], 72.5 µM; in [6], 46.6 µM. Besides, the TGI in [7] was 32.8 µM; in assay [8], 51.9 µM.

For `CN(C)CCCNc1ccc2ncn3c4ccccc4c(=O)c1c23`, the TGI in [1] was over 100 µM; in assay [2], 13.7 µM; in assay [3] it was 92.2 µM; in [4] it was over 100 µM; in assay [5] it was 34.7 µM; in assay [6], 15 µM. The values for the TGI in assay [8] and in assay [9] were 85.6 µM and 52.5 µM, respectively.

As to `O=c1ccc2cc(O)c(O)cc2o1`, the TGI in assay [1], in [2], in assay [3], in [4], in assay [5] and in [10] was over 100 µM throughout. The TGI in assay [6], in assay [7], in [8] and in [9] was over 100 µM each time.

Consider `Cc1ccc(S(=O)(=O)NCCSCCNS(=O)(=O)c2ccc(C)cc2)cc1`, for which the TGI in [1], in [2], in [3], in assay [4], in assay [10] and in assay [6] was over 100 µM in each case. For the same compound, the TGI in [7], in assay [8] and in assay [9] was over 100 µM throughout.

For `COc1ccc([C@@H]2ON(C)[C@H]3CN(C)C(=O)[C@@H]23)cc1`, the TGI in assay [1], in assay [2], in assay [3], in [4], in assay [10] and in assay [6] was over 100 µM each time. For the same compound, the concentration for total growth inhibition (TGI) in assay [7], in assay [8] and in assay [9] was over 100 µM each time.

For `C/C=C/[P+](c1ccccc1)(c1ccccc1)c1ccccc1`, the TGI in assay [1] is 15 µM; in assay [2], 7.26 µM; in assay [3] it was 19.9 µM; in assay [4], 16.5 µM; in [5] it was 19.2 µM; in [10], over 63.8 µM. For the same compound, the TGI in [6] is 0.285 µM; in assay [7], 9.54 µM; in assay [8], over 100 µM; in [9], 62.5 µM.

The term GI50 denotes the concentration that inhibits growth by half. As to `O=C1c2c(c3c4ccccc4[nH]c3c3ccc4ccccc4c23)C(=O)N1CCN1CCCCC1`, the GI50 in assay [1] is 0.94 µM; in assay [2] it was 0.894 µM; in assay [3], 2.2 µM; in assay [4], 0.447 µM; in assay [5], 1.21 µM; in assay [10] it was 1.68 µM. Also, the GI50 in assay [6] was 1.38 µM; in [7] it was 1.51 µM; in assay [8], 0.963 µM; in assay [9], 0.335 µM. Besides, the TGI in [1] stood at 46.4 µM; in [2], 2.33 µM; in assay [3], 22.6 µM; in assay [4], 1.73 µM; in [5], 2.59 µM; in [10], 24.7 µM. Moreover, the TGI was 8.28 µM in assay [6], 3.1 µM in assay [7], 3.38 µM in assay [8] and 2.26 µM in assay [9].

For `Cc1ccc(Oc2ccc(C)cc2[N+](=O)[O-])cc1`, the TGI in [2] was over 100 µM; in assay [3], over 100 µM; in [4] it was over 100 µM; in [5], over 100 µM; in assay [6], over 100 µM; in assay [7] it was 92.6 µM. Besides, the TGI in assay [8] and in assay [9] was over 100 µM in each case.

With `COc1ccc(-c2c3c(nc4nc(SCCc5ccccc5)nc(N)c24)CCCC3)cc1OC`, the TGI in [1], in assay [2], in assay [3], in assay [4], in assay [5] and in assay [10] was over 100 µM throughout. The TGI in [6], in assay [7], in [8] and in assay [9] was over 100 µM each time.

As to `CCCCCCCSc1nc2c(C(=O)OCC)ncn2c2ccccc12`, the TGI in assay [2], in [4], in assay [5], in assay [6], in assay [8] and in assay [9] was over 100 µM in each case.

As for `COc1ccc(N2C(=O)C3c4[nH]c5c(C)cccc5c4C4CCC(C(C)(C)C)CC4C3C2=O)cc1` (stereo not drawn), the TGI in [1] was over 10 µM; in assay [2], 4.17 µM; in [3], over 10 µM; in assay [4] it was over 10 µM; in assay [5], over 10 µM; in assay [10], over 10 µM. Further, the TGI in assay [6], in assay [7], in [8] and in assay [9] was over 10 µM each time.
